Measurements published in US9095567B2, “Vaccine formulations” (priority 2010, dated 2015).
Entries after “also recorded” stand apart in the source; their conditions may differ.

Tests used:
[1] = tested on: Candida albicans (ATCC#10231); test: Preservative effectiveness test, single challenge; assay type: cell-based
Text: (§1) To test for preservative effectiveness, aliquots of vaccine were inoculated with the following organisms:
(§2) Thirty milliliters (ml) of each vaccine formulation with and without Thimerosal or 2-PE at indicated concentrations or saline containing Thimerosal at 0.02% were inoculated in triplicates with a suspension of each test organism to achieve an inoculum density of approximately 10^5 to 10^6 CFU/ml at time 0 (CFU=colony forming units). […] Samples were mixed to ensure even distribution of challenged organisms. Another 30 ml of vaccine in triplicate (with and without preservative) were used as a negative control and spiked with the culture media alone to evaluate the inherent contamination that might be present in the sample or media. Each of the three series of vaccines, and positive and negative controls, was then separately incubated at 20 to 25° C. Aliquots (1 ml) of the challenged samples and controls (or their appropriate serial ten fold dilutions) were enumerated by plate count in duplicates at time 0 and at intervals of 6 hours, 24 hours, 7 days, 14 days and 28 days post-inoculation.
(§3) USP 29 NF 24 Supplement 2 (USP) requires that, after an inoculation of bacterial micro-organism(s), there is at least 1.0 log reduction from the initial calculated count (i.e., at time of inoculation) at 7 days, at least 3.0 log reduction at 14 days from the previous value measured and no increase at 28 days from the previous measured value. For yeast and fungi, the USP requirement is for there to be no increase from the time of inoculation to 7, 14 and 28 days.
(§4) EP requirements are more stringent. EP 5th Edition 5.6 (5.1.3) requirements for parenteral and ophthalmic preparations has two components: Category A and Category B. Category A (EP-A) requires, for bacteria, at least 2.0 log reduction from the initial calculated count at 6 hours after inoculation, at least 3.0 log reduction at 24 hours from the previous measured value, and no recovery at 28 days. Category B (EP-B) requires, for bacteria, at least 1.0 log reduction at 24 hours from the initial calculated count, at least 3.0 log reduction at 7 days from the previous value measured and not more than 0.5 log increase at 28 days from the previous value measured (i.e., no increase). For yeast and fungi, Category A requires at least 2.0 log reduction at 7 days and no increase from the previous value measured at 28 days, and Category B requires at least 1.0 log reduction at 14 days and no increase from the previous value measured at 28 days.
(§5) Plates containing <300 CFU for bacteria or <100 CFU for yeast or mold were used during enumeration. For single challenge studies, arithmetic average count of all surviving micro-organisms in triplicate and on duplicate plates (6 values per time point) plus their diluted samples were measured and normalized as CFU/ml. The results are expressed as mean log10 CFU/ml reduction (compared to time 0). In this case, the count of surviving micro-organisms is evaluated at time 0 as the baseline and compared to incubation time of 6 hours, 24 hours, 7 days, 14 days and 28 days.

[2] = tested on: Staphylococcus aureus (ATCC #6538); test: Preservative effectiveness test, single challenge; assay type: cell-based
Text: as §1, §2, §3, §4, §5

E. coli [3] = tested on: E. coli
Method: To represent the worst reasonable case of contamination that may occur in practice during the repeated use of a multi-dose presentation, WHO requires safety testing with deliberate exposure to multiple contamination events using bacterial strains, Pseudomonas Aeruginosa (“PA”), Staphylococcus Aureus (“SA”), Escherichia coli (“EC”) and Bacillus subtilis (“BA”). Formulations are spiked with 5×10^3 CFU/ml of each organism at times 0, 6 hours, 24 hours, 7 days and 14 days after initial challenge and stored either at 2-8° C. or at 22-24° C. to mimic the potential storage conditions in practice.
To assess the appropriateness of WHO multi-dose Open Vial Policy of vaccines in multiple immunization sessions for up to maximum of four weeks, experimental design provided by WHO was implemented. In this study, the effectiveness of Thimerosal was evaluated at the concentration that is present in the majority of U.S. licensed vaccines (0.01%), as well as at a higher concentration of 0.02%. To represent the worst reasonable case of contamination that may occur in practice during the repeated use of a multi-dose presentation, and to test WHO requirements, Prev(e)nar 13 vaccine formulations with 0.01 or 0.02% Thimerosal or with 5.0 mg/dose of 2-PE were deliberately exposed to multiple contamination events using WHO recommended bacterial strains, P. aeruginosa, S. aureus, E. coli and B. subtilis. […]

[4] = 2-PE concentration on storage (Reversed-Phase HPLC assay)
Method: 2-EP concentration may be measured with a Reversed-Phase HPLC assay, also as described in Example 3. A Reversed-Phase HPLC assay may be performed in the following manner: Samples are vortexed and diluted 1:10 into 5 mM Succinate buffer in saline, centrifuged and diluted again 1:10 into 5 mM succinate buffer in saline (final dilution of the Test Sample is 1:100). The sample is then assayed utilizing the Agilent Eclipse XDB-C18 HPLC column and a linear gradient of water and acetonitrile containing trifluoroacetic acid. The quantification of the preservative is then compared to a standard curve.
2-PE concentration was measured with a Reversed-Phase HPLC assay. Samples were vortexed and diluted 1:10 into 5 mM Succinate buffer in saline, centrifuged and diluted again 1:10 into 5 mM succinate buffer in saline. Final dilution of the Test Sample was 1:100. The assay utilized the Agilent Eclipse XDB-C18 HPLC column and a linear gradient of water and acetonitrile containing trifluoroacetic acid. 2-PE in 13vPnC Multi-Dose Vaccine samples was quantified against a 2-PE standard curve.

[5] = tested on: Pseudomonas aeruginosa (ATCC #9027); test: Preservative effectiveness test, single challenge; assay type: cell-based; conditions: Prev(e)nar 13 formulation, 20 to 25° C.
Text: as §1, §2, §3, §4, §5

[6] = tested on: Aspergillus niger (ATCC #16404); test: Preservative effectiveness test, single challenge; assay type: cell-based
Text: as §1, §2, §3, §4, §5

E. coli [7] = test: Preservative effectiveness test, single challenge; assay type: cell-based; conditions: Prev(e)nar 13 formulation, 20 to 25° C.
Text: as §1, §2, §3, §4, §5

[8] = 0.01% Thimerosal in Prev(e)nar 13, single challenge
[9] = 0.02% Thimerosal in saline (no Prev(e)nar 13) versus vaccine formulation, single challenge
[10] = 5 mg/dose 2-PE in Prev(e)nar 13, single challenge
[11] = Prev(e)nar 13 formulation, single challenge, 20 to 25° C.

C[CH2][Hg][S]c1ccccc1C(=O)[O-].[Na+] [Thimerosal]
inhibition of C. albicans relative to P. aeruginosa and A. niger [1, 8]: weaker | growth inhibitory effectiveness against C. albicans [1, 9]: slightly improved | reduction of contamination levels, C. albicans ([1]; 0.02% Thimerosal versus 0.01% in Prev(e)nar 13, single challenge): more pronounced | inhibition of S. aureus relative to P. aeruginosa and A. niger [2, 8]: weaker | growth inhibitory effectiveness against S. aureus [2, 9]: slightly improved | decline of S. aureus ([2]; Thimerosal in Prev(e)nar 13, single challenge): slow decline | reduction of E. coli (E. coli [3]; 0.01% Thimerosal in Prev(e)nar 13, multiple challenges, particularly at 2-8° C.): slow | rate of decay of E. coli in saline formulation versus vaccine formulation (E. coli [3]; 0.02% Thimerosal, multiple challenges): more pronounced

OCCOc1ccccc1 [2-PE, 2-phenoxyethanol]
concentration of 2-PE in the formulation on storage ([4]; Prev(e)nar 13 formulation stored at 2-8° C. (two and a half years)): similarly stable; also recorded: did not change | concentration of 2-PE in the formulation on storage ([4]; Prev(e)nar 13 formulation stored at 37° C. (a month)): similarly stable; also recorded: did not change | EP (EP-B) vaccine safety requirements, P. aeruginosa [5]: Fails | USP vaccine safety requirements, P. aeruginosa [5]: Meets | effectiveness as a preservative against A. niger compared with Thimerosal [6, 10]: less effective | rate of decline of A. niger contamination compared to Thimerosal [6, 10]: slower | EP (EP-B) vaccine safety requirements, A. niger [6, 11]: Fails | USP vaccine safety requirements, A. niger [6, 11]: Meets | EP (EP-B) vaccine safety requirements, E. coli (E. coli [7]): Fails | USP vaccine safety requirements, E. coli (E. coli [7]): Meets | EP (EP-B) vaccine safety requirements, C. albicans [1, 11]: Fails | USP vaccine safety requirements, C. albicans [1, 11]: Meets | time to reduction of S. aureus to baseline after inoculation ([2]; 5.0 mg/dose 2-PE in Prev(e)nar 13, single challenge): 24 h | EP (EP-B) vaccine safety requirements, S aureus [2, 11]: Fails | USP vaccine safety requirements, S aureus [2, 11]: Meets
